Three substances from publication PMC4975464, “FITC Conjugation Markedly Enhances Hepatic Clearance of N-Formyl Peptides” (PLoS ONE, 2016) can be followed below.

The test system of data set [1] is mouse Heps (mHeps). Briefly: Endocytosis competition of FITC-fNLPNTL uptake, fluorescence microscopy. Conditions: primary mHeps, 4 h serum starved, 100 μg/ml competitor pre-incubated 30 min, then 20 μg/ml FITC-fNLPNTL 60 min at 37°C. The class given is cell-based.
In data set [2] the test system is human LSECs (hLSECs). Described as above. The format is cell-based. Conditions: primary hLSECs, 4 h serum starved, 100 μg/ml competitor pre-incubated 30 min, then 20 μg/ml FITC-fNLPNTL 60 min at 37°C. From the text:
Human hepatocytes (hHeps) and LSECs (hLSECs) were isolated from encapsulated liver resections based on a method described elsewhere. The procedure involves collagenase perfusion through cut blood vessels exposed on the surface of the liver resection. hHeps were isolated by low speed differential centrifugation, and the hLSECs purified by immunomagnetic isolation using mouse anti-human CD32 (Fitzgeralg Industries International INC, North Acton, MA, USA) and Dynabeads® Sheep anti-mouse IgG (Thermo Scientific, Oslo, Norway). The viability of hLSECs as judged by trypan blue exclusion was 95%, and the yield of hLSECs varied from 1 to 10 million depending on the size of the liver resection. […]
(§1) Primary cultures of mouse and human Heps and LSECs were seeded on Permanox chamber slides coated with human fibronectin. […] After removal of unbound ligand by extensive washing with PBS, the cultures were fixed with 4% PFA and processed for fluorescence microscopy as described above.
(§2) After the removal of unbound ligands by extensive washing with PBS, the cultures were fixed with 4% PFA and processed for fluorescence microscopy.
(§3) Primary cultures of hLSECs (A) and mLSECs (B) were established on Permanox chamber slides coated with human fibronectin. […] After removal of unbound ligands by extensive washing with PBS, the cultures were fixed with 4% PFA and processed for fluorescence microscopy.

Data set [3] concerns human hepatocytes (hHeps). The data set is described as above. The format is cell-based. The note with it: primary hHeps, 4 h serum starved, 100 μg/ml competitor pre-incubated 30 min, then 20 μg/ml FITC-fNLPNTL 60 min at 37°C.
Source text: Human hepatocytes (hHeps) and LSECs (hLSECs) were isolated from encapsulated liver resections based on a method described elsewhere. The procedure involves collagenase perfusion through cut blood vessels exposed on the surface of the liver resection. hHeps were isolated by low speed differential centrifugation, and the hLSECs purified by immunomagnetic isolation using mouse anti-human CD32 (Fitzgeralg Industries International INC, North Acton, MA, USA) and Dynabeads® Sheep anti-mouse IgG (Thermo Scientific, Oslo, Norway). The viability of hLSECs as judged by trypan blue exclusion was 95%, and the yield of hLSECs varied from 1 to 10 million depending on the size of the liver resection. The purity of the hLSECs isolation was between 85 and 95%, as judged by light microscopy. This variation in purity is due to donor variation. […]
as §1, §2

Data set [4] concerns mouse LSECs (mLSECs). The description is as above. The class given is cell-based. The note with it: primary mLSECs, 4 h serum starved, 100 μg/ml competitor pre-incubated 30 min, then 20 μg/ml FITC-fNLPNTL 60 min at 37°C. The protocol:
Mouse Heps (mHeps) and LSECs (mLSECs) were prepared by collagenase (Liberase) perfusion of mouse livers, followed by a low-speed differential centrifugation to separate Heps, and density sedimentation of the non-Heps enriched in the supernatant, on 25%– 45% Percoll gradients to collect LSECs and Kupffer cells (KCs), as described. Mouse LSECs were obtained after a panning step of 8 min at 37°C to remove KCs. The purity of mLSECs was between 90 and 95% as judged by fenestration assessed by scanning electron microscopy and positive immunostaining for the LSEC specific marker, stabilin 2. The remaining 5–10% of cells in these cultures represented KCs/monocytes and stellate cells. […]
as §1, §2, §3

Data set [5] in a line: Anatomical distribution of i.v. injected 125I-labeled peptides. The format is in vivo. Conditions: C57BL/6 mice, 8 μg 125I-labeled peptide i.v., n = 2 per group. The protocol:
Unconjugated fNLPNTL and FITC- fNLPNTL were reconstituted at a concentration of 4 mg/ml in DMSO. […] of the solution, corresponding to 100 μg of each peptide was further diluted in PBS to a final volume of 200 μl and incubated with carrier-free Na^125I for 1h at RT, using Iodogen as described by the manufacturer. The labeled peptides were separated from unbound ^125I by elution with PBS through PD-10 columns. The specific radioactivities were 0.98 x 10^6 cpm/μg and 0.12 x 10^6 cpm/μg for ^125I-FITC-fNLPNTL and ^125I-fNLPNTL, respectively.
Prior to experiments, mice were weighed and pre-warmed in a temperature controlled chamber to stimulate dilation of the tail veins. […] The amount of radioactivity was measured in all organs and in the blood sample. The radioactivity per total volume of blood was calculated considering that the average amount of blood in a mouse is approximately 58.5 ml per kg of bodyweight (according to the National Centre for the Replacement Refinement & Reduction of Animals in Research). The amount of tracer recovered was the sum of radioactivity of individual organs, carcass and the radioactivity calculated in total blood volume.
Fig 2 Anatomical distribution of i.v. administered fNLPNTL. […] Blood, internal organs and carcass were harvested and analyzed for radioactivity. […]

For the substance “N-Formyl-Nle-Leu-Phe-Nle-Tyr-Lys [fNLPNTL, N-formyl peptide purchased from Phoenix Pharmaceuticals]”, in data set [1], the “inhibition of uptake of FITC-fNLPNTL in mHeps by competitor” value is “blocked”. In addition, the “inhibition of uptake of FITC-fNLPNTL in hLSECs by competitor” value in data set [2] is “less marked effect”. Besides, the “inhibition of uptake of FITC-fNLPNTL in hHeps by competitor” value in data set [3] was “blocked”. Further, in data set [4], the “inhibition of uptake of FITC-fNLPNTL in mLSECs by competitor” value was “less marked effect”.
Consider “Fluorescein-isothiocyanate- N-Formyl-Nle-Leu-Phe-Nle-Tyr-Lys [FITC-fNLPNTL, fluorescein isothiocyanate derivative of fNLPNTL from Thermo Scientific]”, for which the “uptake in the liver compared to that of native fNLPNTL” value in data set [5] (30 min post injection) is on record as “three-fold higher”. For the same substance, the “major organ of uptake” value in data set [5] (organs analysed 30 min post injection after systemic perfusion, radioactivity as % of total recovered) is reported as “liver”.
Turning to “FSA: Formaldehyde-treated bovine serum albumin, ligand specifically endocytosed by the LSECs scavenger receptors”, the “inhibition of uptake of FITC-fNLPNTL in hLSECs by competitor” value in data set [2] is “inhibited”. Also, in data set [4], the “inhibition of uptake of FITC-fNLPNTL in mLSECs by competitor” value is “inhibited”.
